The values below come from PMC8148468, “Shikimic acid protects skin cells from UV-induced senescence through activation of the NAD+-dependent deacetylase SIRT1” (Aging (Albany NY), 2021).

Data set [1] deals with UVB-irradiated human dermal fibroblasts (HDFs). The experiment in a line: UVB-induced senescence assay: SA-β-Gal staining. On β-Gal: key: ↑: increase; ↓: decrease; hyphens that indicate no effect (-). The format is cell-based. To be noted: for β-Gal: HDF, 2 cycles of UVB, compound day 1 to 7, Figure 2B. On the procedure: (§1) In the second approach, we established a method for inducing senescence in these cells with 2 cycles of UVB irradiation 72h apart (Figure 2A). The use of UVA to induce senescence was discarded due to its considerably longer time requirement, being unsuitable to screen 30 compounds within a reasonable period. Cells were treated with these compounds throughout the duration of the assay and cellular senescence was monitored with two markers: accumulation of SA-β-galactosidase (SA-β-Gal) activity, and the decrease in expression of HAS2 (hyaluronic acid synthase 2), a previously reported marker of skin senescence.
(§2) Figure 2 (A) Schematic representation of the protocol for senescence induction using UVB irradiation. Cells were treated -/+ the compounds from day 1 to 7 after seeding, irradiated with UVB on days 2 and 5 and harvested for analysis on day 7. […] (C) Phase-contrast (left column) and bright field (right column) microscope images of SA-β-Gal staining showing non-irradiated cells, UVB-irradiated cells non-treated and treated with Gallic acid or Shikimic acid at the indicated concentrations. (D) Percentage of SA-β-Gal positive cells and (E) Relative HAS2 mRNA levels in non-irradiated cells, UVB-irradiated cells and UVB-irradiated cells treated with Gallic acid or Shikimic acid at the indicated concentrations. Student T-test, *p<0.05, **p<0.01, ***p<0.001.
(§3) The protocol for senescence induction using UVB irradiation is described in the Supplementary Methods. SA-β-Gal staining, WST-1, sulforhodamine B (SRB) and trypan blue assays were performed as previously described. For the siRNA experiments, the protocol for senescence induction using UVB irradiation was the same as in the Supplementary Methods. Specific siRNA (Horizon discovery, UK) for SIRT1, SIRT2, SIRT6, BiP or scramble siRNA were incubated for 6 hours before each irradiation step.
(§4) Senescence induction by UVB irradiation For the non-irradiation control conditions, HDF were […]
(§5) After 24h, culture medium was removed and well plates. After 24h, culture medium was removed replaced by fresh cell culture medium containing the and replaced with fresh cell culture medium containing compounds at different concentrations. After 24h, the compounds at different concentrations. […]
(§6) cell culture medium was removed, and cells were cells/plate in fresh cell culture medium containing the irradiated at 25 mJ/cm2 of UVB light (312 nm) in a Bio- compound in 6-well plates. After 3 days, cells were […]
(§7) amount of PBS. PBS was then removed and fresh cell fresh cell culture medium containing the compound in culture medium with the compound was added to each 6-well plates. After 2 days, cells were processed well. After 3 days, cells were irradiated again under the according to the qPCR, β-Gal staining, apoptosis, cell same conditions. After 2 days, cells were processed cycle or immunofluorescence protocols. according to the qPCR, β-Gal staining, apoptosis, cell cycle or immunofluorescence protocols.

Data set [2] concerns H4K16ac (the target of SIRT1 and SIRT2). Nature of the data set: Sirtuin activity assay in HDF: H4K16ac levels (Western blot). On SIRT1,2 H4K16ac: key: ↑: increase; ↓: decrease; hyphens that indicate no effect (-). The format is cell-based, human. The settings on record: HDF treated 24h; for SIRT1,2 H4K16ac: Figure 1B. As for the experimental part: (§8) Figure 1 (A) Schematic representation of the compound testing for sirtuin activity evaluation in HDF. Cells were treated with or without the compounds for 24h and harvested for analysis. […] (C) Western Blot analysis and (D) quantification of H4K16ac and H3K9ac levels in cells treated with Resveratrol or Shikimic acid at the indicated concentrations. H4K16 and H3K9 levels were normalized to H4 and H3 levels respectively. Student T-test, *p<0.05, **p<0.01, ***p<0.001.
(§9) HDFs were plated in 100x20 mm2 cell culture plates and after 24h, fresh cell culture medium containing the compounds was added. After 24h, cells were detached with cell scrapers, harvested, and processed for qPCR or western blot.
(§10) Protein levels were analyzed as previously described. Cells were directly lysed in 1x Laemmli Buffer (Bio-Rad, USA), incubated at 95° C and centrifuged. Supernatant was subjected to SDS-polyacrylamide gel electrophoresis, and successive steps were performed as described. The list of antibodies used is included in Supplementary Table 2.

In data set [3] the test system is HAS2 (hyaluronic acid synthase 2). Nature of the data set: UVB-induced senescence assay: HAS2 gene expression (qPCR). It counts as cell-based, human. On the procedure:
as §1, §2
RNA was extracted from cell pellets using the Total RNA Purification Kit (Norgen, Canada), according to the manufacturer’s protocol. Extracted RNA was quantified using a NanoDrop® ND-1000 UV-Vis Spectrophotometer (Thermo Fisher Scientific, USA) and 300 ng of RNA were retrotranscribed to cDNA using the PrimeScriptTM RT reagent kit (Takara Bio Inc., Japan). cDNA was diluted 1/10 in ultrapure water and qPCR mix was prepared by adding cDNA (12 ng), SYBR green supermix (Bio Rad, USA), forward and reverse primers (0.2μM). The primers and their respective sequences are listed in Supplementary Table 1. qPCR protocol included one step at 95° C for 30 s, 40 cycles at 95° C for 10s, and 60° C for 1min. The results were analyzed with Bio-Rad CFX Manager software. BACT was used as a housekeeping gene to normalize gene expression.
as §4, §5, §6, §7
(In general: Real-time PCR tracks product formation cycle by cycle.)

For data set [4], the system named is primary human dermal fibroblasts (HDFs).
Description: In our efforts to identify novel factors that could prevent skin cell senescence, we developed a screening process to identify new modulators of the protective role of sirtuins in UV-induced senescence. For this purpose, we established a culture of primary human dermal fibroblasts (HDFs). […] Our first step in the screening was to establish the optimal concentrations of these compounds in the case of HDFs. […] Once established, we took these parameters into account to decide the specific working range of concentrations for each compound.
Human dermal fibroblasts (HDFs) (Promocell, Germany) from 40-year old Caucasian women were used as the in vitro model for compound viability and efficacy screening. Cells were cultured in Dulbecco's modified eagle medium (DMEM) low glucose (Biowest, France) supplemented with 10% fetal bovine serum (FBS) (Capricorn Scientific, Germany) and 10 U/mL penicillin/streptomycin (Biowest, France) in a humidified incubator at 37° C and 5% CO2. For cell passage, cells at 80% confluence were trypsinized and plated at 60% confluence. Cells between passage 13 and 18 were used for the assays. For the SIRT1 in vitro assay, HEK293 cells (ATCC, USA), used to transfect and immunoprecipitate SIRT1 protein, were grown in DMEM high glucose (Thermo Fisher Scientific, USA), supplemented with 10% FBS in a humidified incubator at 37° C and 5% CO2. The following experiments were all performed in triplicate.
as §3

The test system of data set [5] is H3K9ac (the target of SIRT1, SIRT2 and SIRT6). The experiment in a line: Sirtuin activity assay in HDF: H3K9ac levels (Western blot). On SIRT1,2,6 H3K9ac: key: ↑: increase; ↓: decrease; hyphens that indicate no effect (-). The format is cell-based, human. The settings on record: HDF treated 24h; for SIRT1,2,6 H3K9ac: Figure 1B. As for the experimental part: as §8, §9, §10
On the technique in general: Immunoblotting shows a protein as a band on a membrane.

[6] abbreviates: HDF, 2 cycles of UVB, compound day 1 to 7, Figure 2B.
The mark [7] stands for this setting: HDFs, WST-1 cell viability test.
The mark [8] stands for this setting: HDFs, WST-1 cell viability test, maximum non-cytotoxic dose.

Structures are written as SMILES. Read-outs that look alike come from different tables or passages of the source.

`C[N+](C)(C)CC(=O)O` [Betaine]: in data set [1], the β-Gal result is listed as “-”. Further, in data set [2], the “SIRT1,2 H4K16ac” value is “-”. Also, in data set [3] (setting [6]), the HAS2 expression entry is on record as “-”. In data set [4] (setting [7]), the “LD50” value is 507.81 mM. In data set [4] (setting [8]), the “Max. non-cyt. doses” value was 50 mM. The “SIRT1,2,6 H3K9ac” value in data set [5] is “-”.

Consider `C/C=C/C(=O)C1=C(C)C=CCC1(C)C` [Damascenone], for which the β-Gal entry in data set [1] was “-”. The “SIRT1,2 H4K16ac” value in data set [2] is “-”. The HAS2 expression result in data set [3] (setting [6]) was “-”. In addition, the “Max. non-cyt. doses” value in data set [4] came to 0.05 mM. Further, the “LD50” value in data set [4] (setting [7]) is recorded as 0.121 mM. Further, in data set [5], the “SIRT1,2,6 H3K9ac” value is “-”.

With `CC(C)(CO)[C@@H](O)C(=O)NCCCO` [Dexpanthenol, reference compound], the β-Gal result in data set [1] is reported as “-”. The “prevention of UV-induced cellular senescence” value in data set [1] (UVB-irradiated HDF, SA-β-Gal and HAS2 markers) is reported as “did not prevent cellular senescence”. Besides, the “effect on H4K16ac levels” value in data set [2] is “induced a similar effect on both targets”. For the same molecule, in data set [3] (setting [6]), the HAS2 expression result was “-”. In data set [4] (female, human), the “LD50” value stood at 262.48 mM and the “Max. non-cyt. doses” value turned out to be 100 mM. Besides, in data set [5], the “effect on H3K9ac levels” value is on record as “induced a similar effect on both targets”.

As to `CC1=NCC[C@@H](C(=O)O)N1` [Ectoine], the β-Gal result in data set [1] was “-”. The “SIRT1,2 H4K16ac” value in data set [2] is on record as “-”. The HAS2 expression entry in data set [3] (setting [6]) was “-”. In addition, in data set [4], the “Max. non-cyt. doses” value came to 300 mM. Besides, in data set [4] (setting [7]), the “LD50” value turned out to be 359.12 mM. Also, the “effect on H3K9ac levels” value in data set [5] is “reduced the levels of H3K9ac only”.

As for `O=C(OC[C@H]1OC(O)[C@@](O)(COC(=O)c2cc(O)c(O)c(O)c2)[C@@H]1O)c1cc(O)c(O)c(O)c1` (stereo partly shown) [Hamamelitannin], the β-Gal entry in data set [1] was “-”. Also, the “SIRT1,2 H4K16ac” value in data set [2] was “-”. In data set [3] (setting [6]), the HAS2 expression result is on record as “-”. In data set [4] (setting [7]), the “LD50” value is listed as 0.247 mM. Moreover, the “Max. non-cyt. doses” value in data set [4] (setting [8]) is 0.1 mM. The “SIRT1,2,6 H3K9ac” value in data set [5] was “-”.

Turning to `c1coc(CNc2ncnc3[nH]cnc23)c1` [Kinetin], the β-Gal result in data set [1] is “-”. Also, in data set [2], the “SIRT1,2 H4K16ac” value is listed as “-”. Besides, the HAS2 expression entry in data set [3] (setting [6]) was “-”. Also, in data set [4] (female, human), the “LD50” value was found to be 1.835 mM and the “Max. non-cyt. doses” value worked out at 0.5 mM. Moreover, the “effect on H3K9ac levels” value in data set [5] is reported as “reduced the levels of H3K9ac only”.

As for `Cc1ncc(CO)c(CO)c1O` [Pyridoxine, reference compound], the β-Gal entry in data set [1] was “-”. In data set [2], the “SIRT1,2 H4K16ac” value is given as “-”. In addition, the HAS2 expression entry in data set [3] (setting [6]) is given as “-”. Also, in data set [4] (female, human), the “LD50” value worked out at 16.92 mM and the “Max. non-cyt. doses” value came out at 5 mM. Moreover, the “SIRT1,2,6 H3K9ac” value in data set [5] was “-”.

For the molecule `O=c1c(O)c(-c2ccc(O)c(O)c2)oc2cc(O)cc(O)c12` [Quercetin, reference compound], the β-Gal result in data set [1] is recorded as “-”. Also, in data set [2], the “effect on H4K16ac levels” value is on record as “induced a similar effect on both targets”. Also, the “HAS2 expression” value in data set [3] (UVB-irradiated HDF) is reported as “only promoted HAS2 upregulation”. The “LD50” value in data set [4] (setting [7]) was 0.604 mM. Also, in data set [4] (female, human), the “Max. non-cyt. doses” value is recorded as 0.25 mM. Also, in data set [5], the “effect on H3K9ac levels” value is “induced a similar effect on both targets”.

As to `Oc1ccc(/C=C/c2cc(O)cc(O)c2)cc1` [Resveratrol, reference compound], the “SA-β-Gal accumulation/staining” value in data set [1] (UVB-irradiated HDF) is “increased SA-β-Gal staining”. Moreover, in data set [2], the “effect on H4K16ac levels” value is reported as “induced a similar effect on both targets”. The HAS2 expression result in data set [3] (setting [6]) is reported as “-”. Besides, in data set [4] (female, human), the “LD50” value came to 0.173 mM and the “Max. non-cyt. doses” value came out at 0.05 mM. For the same molecule, the “effect on H3K9ac levels” value in data set [5] was “induced a similar effect on both targets”.

For the molecule `NC(=S)N/N=C/c1ccccc1O` [Salicyladehyde thiosemicarbazone], the β-Gal entry in data set [1] is “-”. Besides, the “SIRT1,2 H4K16ac” value in data set [2] was “-”. Besides, the HAS2 expression result in data set [3] (setting [6]) is “-”. In addition, in data set [4] (setting [7]), the “LD50” value worked out at 4.175 mM. Further, the “Max. non-cyt. doses” value in data set [4] (setting [8]) is reported as 0.5 mM. In data set [5], the “SIRT1,2,6 H3K9ac” value is listed as “-”.
